From paper PMC12374581 (European journal of medicinal chemistry, 2025)
Values joined by “and” are separate entries in the source; they are usually repeats but may differ in a detail not shown here. Identical values can stand only once. Like-named read-outs stand apart in the source and are kept apart here.

Columns and labels:
[1] = molecular target: human μ opioid receptor (OPRM1) (Homo sapiens, UniProt P35372); test: cell-based; type: cell-based; conditions: for Emax: OPRM1, read-out: MOR cAMP %Emax ± SEM
[2] = molecular target: human μ opioid receptor β-arrestin-2 (Homo sapiens, UniProt P35372); test: cell-based; conditions: for Emax: read-out: β-Arrestin Recruitment %Emax ± SEM
in vitro [3] = conditions: human, microsomes
in vitro [4] = conditions: mouse, microsomes
[5] = molecular target: human δ opioid receptor (OPRD1) (Homo sapiens, UniProt P41143); test: cell-based; type: cell-based; conditions: for Emax: read-out: DOR cAMP Emax ± SEM (%)
[6] = molecular target: κ opioid receptor (OPRK1) (Homo sapiens, UniProt P41145); test: cell-based; conditions: for Emax: read-out: KOR cAMP Emax ± SEM (%)
[7] = molecular target: nociceptin receptor (OPRL1) (Homo sapiens, UniProt P41146); test: cell-based; type: cell-based; conditions: for Emax: read-out: NOR cAMP Emax ± SEM (%)
B6129/F1 hybrid mice [8] = test: Hot plate test; type: in vivo, mouse; conditions: for ED50: Mus musculus, read-out: ED50 (antinociception, hot plate); for in vivo agonist profile (antinociception): hot plate, mice; for in vivo agonist profile (antinociception) / Emax (maximal possible effect at the highest dose, hot plate): i.p.; for Emax (maximal possible effect at the highest dose, hot plate): cumulative doses, B6129/F1 mice, nonlinear regression
B6129/F1 hybrid mice [9] = test: Naloxone pre-treatment antagonist study in hot plate test; type: in vivo, mouse; conditions: naloxone 10 mg/kg pretreatment, agonist 10 mg/kg
[10] = Solubility observed for in vivo dosing
[11] = read-out: β-Arrestin Recruitment EC50

human δ opioid receptor (OPRD1), sequence (P41143 whole entry): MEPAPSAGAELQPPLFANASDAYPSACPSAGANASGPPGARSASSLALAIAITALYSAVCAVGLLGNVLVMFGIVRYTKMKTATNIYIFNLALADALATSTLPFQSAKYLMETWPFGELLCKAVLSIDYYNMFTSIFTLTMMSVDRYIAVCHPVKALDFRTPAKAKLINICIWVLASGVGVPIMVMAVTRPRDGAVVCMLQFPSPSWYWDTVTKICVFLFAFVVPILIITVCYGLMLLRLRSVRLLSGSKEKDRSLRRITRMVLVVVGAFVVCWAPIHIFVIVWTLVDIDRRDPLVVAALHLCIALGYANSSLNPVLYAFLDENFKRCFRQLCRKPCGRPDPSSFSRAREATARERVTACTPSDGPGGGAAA
nociceptin receptor (OPRL1), sequence (P41146 whole entry): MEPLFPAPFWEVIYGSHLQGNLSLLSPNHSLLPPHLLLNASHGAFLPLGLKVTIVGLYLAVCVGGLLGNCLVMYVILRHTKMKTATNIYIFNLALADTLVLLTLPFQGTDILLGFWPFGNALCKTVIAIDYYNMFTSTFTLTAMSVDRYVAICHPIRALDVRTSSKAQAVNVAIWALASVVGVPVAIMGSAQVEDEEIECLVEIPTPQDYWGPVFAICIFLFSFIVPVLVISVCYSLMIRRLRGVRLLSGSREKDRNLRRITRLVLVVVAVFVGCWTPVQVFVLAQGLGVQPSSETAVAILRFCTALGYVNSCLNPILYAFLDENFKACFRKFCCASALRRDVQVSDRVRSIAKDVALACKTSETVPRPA
κ opioid receptor (OPRK1), sequence (P41145 whole entry): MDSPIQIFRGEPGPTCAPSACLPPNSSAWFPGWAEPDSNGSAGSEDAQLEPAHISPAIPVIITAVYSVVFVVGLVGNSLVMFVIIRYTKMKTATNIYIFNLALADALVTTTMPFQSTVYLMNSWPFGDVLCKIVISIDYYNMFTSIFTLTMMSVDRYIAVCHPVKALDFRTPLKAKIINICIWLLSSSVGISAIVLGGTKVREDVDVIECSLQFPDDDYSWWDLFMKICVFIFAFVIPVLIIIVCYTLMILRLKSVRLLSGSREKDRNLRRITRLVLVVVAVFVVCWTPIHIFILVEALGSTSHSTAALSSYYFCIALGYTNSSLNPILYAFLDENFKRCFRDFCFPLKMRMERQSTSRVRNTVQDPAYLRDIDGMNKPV
human μ opioid receptor β-arrestin-2, sequence (P35372 whole entry): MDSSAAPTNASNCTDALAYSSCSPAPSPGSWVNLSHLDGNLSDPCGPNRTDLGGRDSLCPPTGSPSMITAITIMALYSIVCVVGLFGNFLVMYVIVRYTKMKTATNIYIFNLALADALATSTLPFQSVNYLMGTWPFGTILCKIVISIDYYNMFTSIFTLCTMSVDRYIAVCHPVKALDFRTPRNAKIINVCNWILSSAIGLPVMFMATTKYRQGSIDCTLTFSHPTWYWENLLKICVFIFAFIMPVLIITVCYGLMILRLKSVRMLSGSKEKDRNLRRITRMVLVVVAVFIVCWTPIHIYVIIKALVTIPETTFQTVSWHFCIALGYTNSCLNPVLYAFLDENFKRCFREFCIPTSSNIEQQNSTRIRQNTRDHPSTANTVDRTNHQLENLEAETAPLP
human μ opioid receptor (OPRM1), sequence (P35372 whole entry): as above

Oc1ccc(N2C3CCC2CN(CCCc2ccccc2)C3)cc1 [Compound 1, 4-(3-(3-Phenylpropyl)-3,8-diazabicyclo[3.2.1]octan-8-yl)phenol]
EC50 [1]: 250 nM
fold reduction in MOR cAMP potency compared to atoxifent [1]: 700 fold
Emax [1]: 58.7 ± 5.8%
EC50 [2]: > 10000 nM
Emax [2]: 0%
EC50 [2, 11]: > 10000 nM

OCc1cccc(N2C3CCC2CN(CCCc2ccccc2)C3)c1 [Compound 3, (3-(3-(3-Phenylpropyl)-3,8-diazabicyclo[3.2.1]octan-8-yl)phenyl)methanol]
EC50 [1]: 20 nM
Emax [1]: 102 ± 1.1%

CC(C)(O)c1cccc(N2C3CCC2CN(CCCc2ccccc2)C3)c1 [Compound 4, 2-(3-(3-(3-Phenylpropyl)-3,8-diazabicyclo[3.2.1]octan-8-yl)phenyl)propan-2-ol]
EC50 [1]: 250 nM
fold decrease in MOR cAMP activity compared to 3 [1]: 12 fold
Emax [1]: 107.8 ± 0.9%

OC1(c2cccc(N3C4CCC3CN(CCCc3ccccc3)C4)c2)COC1 [Compound 5, 3-(3-(3-(3-Phenylpropyl)-3,8-diazabicyclo[3.2.1]octan-8-yl)phenyl)oxetan-3-ol]
EC50 [1]: 63 nM
Emax [1]: 102.6 ± 0.5%

Oc1cc(Cl)cc(N2C3CCC2CN(CCCc2ccccc2)C3)c1 [Compound 6, 3-Chloro-5-(3-(3-phenylpropyl)-3,8-diazabicyclo[3.2.1]octan-8-yl)phenol]
EC50 [1]: 20 nM
Emax [1]: 99.6 ± 1.1%

Oc1cc(F)cc(N2C3CCC2CN(CCCc2ccccc2)C3)c1 [Compound 8, 3-Fluoro-5-(3-(3-phenylpropyl)-3,8-diazabicyclo[3.2.1]octan-8-yl)phenol]
EC50 [1]: 0.79 nM
Emax [1]: 99.9 ± 0.6%
EC50 [2]: > 10000 nM
Emax [2]: 0%
EC50 [2, 11]: > 10000 nM
half-life (in vitro [3]): 26.6 min
half-life (in vitro [4]): 3.3 min

FC(F)c1cccc(N2C3CCC2CN(CCCc2ccccc2)C3)c1 [Compound 9, 8-(3-(Difluoromethyl)phenyl)-3-(3-phenylpropyl)-3,8-diazabicyclo[3.2.1]octane]
EC50 [1]: 13 nM
Emax [1]: 102.6 ± 1%
EC50 [2]: > 10000 nM
EC50 [2, 11]: > 10000 nM

O=[N+]([O-])c1cccc(N2C3CCC2CN(CCCc2ccccc2)C3)c1 [Compound 10, 8-(3-Nitrophenyl)-3-(3-phenylpropyl)-3,8-diazabicyclo[3.2.1]octane]
EC50 [1]: 10 nM
Emax [1]: 100.6 ± 0.4%
EC50 [2]: > 10000 nM
Emax [2]: 0%
EC50 [2, 11]: > 10000 nM

Nc1cccc(N2C3CCC2CN(CCCc2ccccc2)C3)c1 [Compound 11, 3-(3-(3-Phenylpropyl)-3,8-diazabicyclo[3.2.1]octan-8-yl)aniline]
EC50 [1]: 0.25 nM
Emax [1]: 104 ± 2.4%
EC50 [2]: > 10000 nM
Emax [2]: 0%
EC50 [2, 11]: > 10000 nM
EC50 [5]: 1.6 nM
Emax [5]: 71.1 ± 3.6%
EC50 [6]: > 10000 nM
Emax [6]: 0%
EC50 ([7]; NOR cAMP EC50 (nM)): > 10000 nM
EC50 ([7]; NOR cAMP pEC50± SEM): > 10000 nM
Emax [7]: 0%
ED50 (B6129/F1 hybrid mice [8]; ip): 0.849 mg/kg
in vivo agonist profile (antinociception) (B6129/F1 hybrid mice [8]): partial agonists
Emax (maximal possible effect at the highest dose, hot plate) (B6129/F1 hybrid mice [8]): 43.86 % MPE and 44 % MPE
effect of naloxone pretreatment on antinociceptive effects (B6129/F1 hybrid mice [9]): antagonized by naloxone
half-life (in vitro [3]): 36.5 min
half-life (in vitro [4]): 3.5 min
solubility (in words) [10]: poorly soluble

O=S(=O)(Nc1cccc(N2C3CCC2CN(CCCc2ccccc2)C3)c1)C1CC1 [Compound 12, N-(3-(3-(3-Phenylpropyl)-3,8-diazabicyclo[3.2.1]octan-8-yl)phenyl)cyclopropane-sulfonamide]
EC50 [1]: 0.5 nM
Emax [1]: 98.8 ± 0.4%
EC50 [2]: 25 nM
Emax [2]: 4.3 ± 0.2%
EC50 [5]: 1.6 nM
Emax [5]: 71 ± 4.7%
EC50 [6]: > 10000 nM
Emax [6]: 0%
EC50 ([7]; NOR cAMP EC50 (nM)): > 10000 nM
EC50 ([7]; NOR cAMP pEC50± SEM): > 10000 nM
Emax [7]: 0%
ED50 (B6129/F1 hybrid mice [8]; ip): 2.8 mg/kg
in vivo agonist profile (antinociception) (B6129/F1 hybrid mice [8]): partial agonists
Emax (maximal possible effect at the highest dose, hot plate) (B6129/F1 hybrid mice [8]): 33.45 % MPE and 33 % MPE
effect of naloxone pretreatment on antinociceptive effects (B6129/F1 hybrid mice [9]): antagonized by naloxone
half-life (in vitro [3]): 35.6 min
half-life (in vitro [4]): 6.4 min
solubility (in words) [10]: poorly soluble

NC(=O)c1cccc(N2C3CCC2CN(CCCc2ccccc2)C3)c1 [Compound 13, 3-(3-(3-Phenylpropyl)-3,8-diazabicyclo[3.2.1]octan-8-yl)benzamide]
MOR cAMP pEC50±SEM [1]: 9.6 ± 0.1
Emax [1]: 101.8 ± 0.3%
EC50 ([1]; read-out: MOR cAMP EC50): 0.25 nM
β-Arrestin Recruitment pEC50 ± SEM [2]: 7.8 ± 0.1
Emax [2]: 7.5 ± 1.3%
EC50 [2, 11]: 16 nM
DOR cAMP pEC50±SEM [5]: 8.0 and 8.0 ± 0.2
EC50 ([5]; read-out: DOR cAMP EC50): 10 nM
Emax [5]: 81.3 ± 3%
KOR cAMP pEC50± SEM [6]: < 5.0
EC50 ([6]; read-out: KOR cAMP EC50): > 10000 nM
Emax [6]: 0%
NOR cAMP pEC50± SEM [7]: < 5.0
EC50 ([7]; read-out: NOR cAMP EC50): > 10000 nM
Emax [7]: 0%
ED50 (B6129/F1 hybrid mice [8]; ip): 0.658 mg/kg
in vivo agonist profile (antinociception) (B6129/F1 hybrid mice [8]): partial agonists
Emax (maximal possible effect at the highest dose, hot plate) (B6129/F1 hybrid mice [8]): 31.91 % MPE and 32 % MPE
effect of naloxone pretreatment on antinociceptive effects (B6129/F1 hybrid mice [9]): antagonized by naloxone
half-life (in vitro [3]): 92.7 min
half-life (in vitro [4]): 14.2 min
solubility (in words) [10]: readily soluble

NC(=O)c1ccccc1N1C2CCC1CN(CCCc1ccccc1)C2 [Compound 14, 2-(3-(3-Phenylpropyl)-3,8-diazabicyclo[3.2.1]octan-8-yl)benzamide]
EC50 [1]: 3.2 nM
fold decrease in MOR cAMP activity compared to 13 [1]: ~14 fold
Emax [1]: 101.6 ± 0.6%
EC50 [2]: 700 nM
Emax [2]: 26.5 ± 2.4%

NC(=O)c1ccc(N2C3CCC2CN(CCCc2ccccc2)C3)cc1 [Compound 15, 4-(3-(3-Phenylpropyl)-3,8-diazabicyclo[3.2.1]octan-8-yl)benzamide]
EC50 [1]: > 10000 nM
EC50 ([1]; read-out: MOR cAMP EC50): > 10000 nM

NC(=O)c1cc(N2C3CCC2CN(CCCc2ccccc2)C3)ccc1O [Compound 16, 2-Hydroxy-5-(3-(3-phenylpropyl)-3,8-diazabicyclo[3.2.1]octan-8-yl)benzamide]
EC50 [1]: 4 nM
Emax [1]: 60.9 ± 3.9%
EC50 [2]: > 10000 nM
Emax [2]: 0%
EC50 [2, 11]: > 10000 nM
EC50 [5]: 16 nM
Emax [5]: 34.8 ± 3%
agonist activity at NORs (in words) [7]: no agonist activity
EC50 ([7]; NOR cAMP EC50 (nM)): > 10000 nM
EC50 ([7]; NOR cAMP pEC50± SEM): > 10000 nM
Emax [7]: 0%
half-life (in vitro [3]): 13 min
half-life (in vitro [4]): 2.1 min

NC(=O)c1cc(N2C3CCC2CN(CCCc2ccccc2)C3)ccc1F [Compound 18, 2-Fluoro-5-(3-(3-phenylpropyl)-3,8-diazabicyclo[3.2.1]octan-8-yl)benzamide]
EC50 [1]: 10 nM
Emax [1]: 100.2 ± 0.5%
EC50 [2]: > 10000 nM
EC50 [2, 11]: > 10000 nM
EC50 [5]: 160 nM
Emax [5]: 56.2 ± 6.2%
EC50 ([7]; NOR cAMP EC50 (nM)): 25 nM
EC50 ([7]; NOR cAMP pEC50± SEM): 25.1 nM
Emax [7]: 41.9 ± 19.3%

NC(=O)c1cccc(N2C3CCC2CN(CCCc2ccccc2)C3)c1F [Compound 19, 2-Fluoro-3-(3-(3-phenylpropyl)-3,8-diazabicyclo[3.2.1]octan-8-yl)benzamide]
EC50 [1]: 2.5 nM
Emax [1]: 101.2 ± 0.6%
EC50 [2]: > 10000 nM
Emax [2]: 0%
EC50 [2, 11]: > 10000 nM
EC50 [5]: 13 nM
Emax [5]: 71.4 ± 1.8%
EC50 ([7]; NOR cAMP EC50 (nM)): 3.2 nM
EC50 ([7]; NOR cAMP pEC50± SEM): 3.16 nM
Emax [7]: 19.5 ± 3.4%

c1ccc(CCCN2CC3CCC(C2)N3c2cccc(-c3ncco3)c2)cc1 [Compound 20, 2-(3-(3-(3-Phenylpropyl)-3,8-diazabicyclo[3.2.1]octan-8-yl)phenyl)oxazole]
EC50 [1]: 320 nM
Emax [1]: 100 ± 0.1%

C[C@@H](NC(=O)[C@@H](N)Cc1ccc(O)cc1)C(=O)NCC(=O)N(C)[C@@H](Cc1ccccc1)C(=O)NCCO [DAMGO, reference compound]
Emax [2]: 102.3 ± 0.2%

Buprenorphine [reference compound]
ED50 (antinociception, hot plate) (B6129/F1 hybrid mice [8]; mouse, in vivo, ip): 0.6441 mg/kg
